In patent publication US20180078569A1, “KITS FOR INDENTIFYING AND TREATING SUBJECTS RESISTANT TO ACETYL SALICYLIC ACID” (priority 2006, published 2018):

Assays:
[1] = test system: cardiovascular complications; conditions: daily intake 75-150 mg/day, patients who previously had coronary disease; cited from earlier work
[2] = target: T1, COX-1 (Homo sapiens, UniProt P23219); assay: Thrombin-induced thromboxane production in platelets from bypass patients treated in vitro; assay type: cell-based; conditions: for thromboxane production induced by thrombin: platelets from patients subjected to aorto-coronary bypass, treated in vitro
T1 construct: prostaglandin H synthase, an enzyme present in platelets and commonly defined as COX-1; endogenous in cells; host or cells: washed platelets from donors' venous blood (healthy volunteers; patients 5 days after aorto-coronary bypass)
T1 sequence (P23219 24-599): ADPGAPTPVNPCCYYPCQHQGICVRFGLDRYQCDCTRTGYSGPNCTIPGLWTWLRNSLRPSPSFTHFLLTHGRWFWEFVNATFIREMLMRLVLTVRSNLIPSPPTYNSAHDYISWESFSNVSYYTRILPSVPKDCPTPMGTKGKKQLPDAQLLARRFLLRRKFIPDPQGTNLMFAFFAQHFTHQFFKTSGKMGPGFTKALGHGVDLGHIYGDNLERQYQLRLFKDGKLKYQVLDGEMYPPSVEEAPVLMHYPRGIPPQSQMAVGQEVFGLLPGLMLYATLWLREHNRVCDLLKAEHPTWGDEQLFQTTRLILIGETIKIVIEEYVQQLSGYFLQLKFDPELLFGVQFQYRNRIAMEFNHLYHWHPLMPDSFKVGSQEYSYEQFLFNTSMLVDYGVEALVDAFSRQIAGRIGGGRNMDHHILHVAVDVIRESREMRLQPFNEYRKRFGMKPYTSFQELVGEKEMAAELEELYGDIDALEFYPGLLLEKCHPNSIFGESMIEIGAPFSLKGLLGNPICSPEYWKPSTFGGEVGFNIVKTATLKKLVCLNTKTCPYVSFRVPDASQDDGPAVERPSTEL
Method: patients at 5 days from an aortic-coronary-bypass.
(§1) The evaluation of the biologic efficacy of aspirin in platelets was made by studying Thromboxane A2 production, a specific marker of the cyclooxygenase pathway in platelets. Aspirin and/or Dipyridamole treated platelets (see above) were activated with thrombin 1 U/ml for 1 h at 37° C., and then centrifugated 1 min at 8.000 g. Thromboxane B2, a stable metabolite of TXA2, was measured in the supernatant through a commercial ELISA kit (Cayman, chemicals Co).

[3] = target: T1, COX-1; assay: Thrombin-induced thromboxane production of aspirinated platelets (TxB2 ELISA); assay type: cell-based; conditions: for thrombin-induced production of thromboxane: aspirinated platelets, with or without inhibitor added prior to ASA; for reduction of thromboxane production: inhibitor added prior to ASA, versus aspirinated platelets not pretreated
Method: The resuspended platelets in the Tyrode's buffer at the concentration of 2.5×10^8 cells/ml were treated with aspirin (50 microM) at 10° C. for 15 min and then kept at 37° C. or at 4° C. for 15 min.
MRP4 inhibitors were used such as Dipyridamole and MK571 ((E)-3-[[[3-[2-(7-chloro-2-quinolinyl)ethenyl]phenyl]-[[3-dimethylamino)-3-oxo-propyl]-thio]-methyl]thio]-propanoic acid), both at 100 microM and incubated 30 min at RT before aspirin addition.
as §1

[4] = oral administration; cited from earlier work
[5] = target: T2, MRP4-mediated transport (Homo sapiens, UniProt O15439); assay: Cytosolic concentrations of ASA and salicylic acid in platelets incubated with ASA (HPLC); assay type: cell-based; conditions: for cytosolic concentration of acetylsalicylic acid (ASA) / cytosolic concentration of metabolite salicylic acid: platelets pretreated with inhibitor (dipyridamole 100 microM) 10 minutes before ASA 50 microM, compared to platelets treated with solvent alone (DMSO)
T2 construct: endogenous in cells; host or cells: washed platelets (and a dense-granule suspension made from them) from donors' venous blood
T2 sequence (O15439 1-1325): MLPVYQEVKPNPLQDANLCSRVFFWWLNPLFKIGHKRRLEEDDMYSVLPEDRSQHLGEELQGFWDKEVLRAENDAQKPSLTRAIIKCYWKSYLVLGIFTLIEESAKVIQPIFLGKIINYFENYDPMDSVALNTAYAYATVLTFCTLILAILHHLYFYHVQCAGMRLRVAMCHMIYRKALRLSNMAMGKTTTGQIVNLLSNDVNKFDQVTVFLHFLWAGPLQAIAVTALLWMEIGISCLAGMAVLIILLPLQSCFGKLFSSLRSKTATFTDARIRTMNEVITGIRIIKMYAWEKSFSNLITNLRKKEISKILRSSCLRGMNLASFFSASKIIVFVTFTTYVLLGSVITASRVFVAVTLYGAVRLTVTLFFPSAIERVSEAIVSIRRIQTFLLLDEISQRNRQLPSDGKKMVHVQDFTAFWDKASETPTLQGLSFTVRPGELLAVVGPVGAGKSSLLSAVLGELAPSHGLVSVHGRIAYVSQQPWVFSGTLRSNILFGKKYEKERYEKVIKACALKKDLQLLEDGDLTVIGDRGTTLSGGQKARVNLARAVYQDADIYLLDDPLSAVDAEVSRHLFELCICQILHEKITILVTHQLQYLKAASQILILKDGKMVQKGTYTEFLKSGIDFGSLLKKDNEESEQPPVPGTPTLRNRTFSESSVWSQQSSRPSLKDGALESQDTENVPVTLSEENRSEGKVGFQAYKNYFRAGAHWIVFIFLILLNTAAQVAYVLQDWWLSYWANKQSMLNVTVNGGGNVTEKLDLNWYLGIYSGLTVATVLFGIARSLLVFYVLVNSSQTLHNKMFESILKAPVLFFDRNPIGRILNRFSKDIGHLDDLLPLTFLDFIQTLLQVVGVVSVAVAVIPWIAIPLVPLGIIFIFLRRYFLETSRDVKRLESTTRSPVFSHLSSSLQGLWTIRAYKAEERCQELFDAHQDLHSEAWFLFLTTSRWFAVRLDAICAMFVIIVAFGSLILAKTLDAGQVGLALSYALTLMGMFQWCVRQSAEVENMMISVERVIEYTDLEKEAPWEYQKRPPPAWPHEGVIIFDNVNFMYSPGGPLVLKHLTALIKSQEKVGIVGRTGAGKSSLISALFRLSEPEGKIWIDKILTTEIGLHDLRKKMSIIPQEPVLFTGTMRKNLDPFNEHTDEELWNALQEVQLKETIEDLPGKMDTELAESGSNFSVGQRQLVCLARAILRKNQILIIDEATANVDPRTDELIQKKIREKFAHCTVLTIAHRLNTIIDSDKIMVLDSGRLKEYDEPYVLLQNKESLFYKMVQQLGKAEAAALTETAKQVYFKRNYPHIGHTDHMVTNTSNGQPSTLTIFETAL
Excerpt: (§2) 1987, 9, 243-7) and a beta-counter for measuring the radioactive aspirin.
Dipyridamole, in addition to inhibiting the transport mediated by these channels, is also an inhibitor of platelet activity, in that it increases the platelet concentrations of AMPc, inhibiting phosphodiesterase isoform V (PDE typeV).
(§3) The PRP was then subjected to platelet count through blood cell count Celltac Auto Nihon Kohden (MEK 8118K). The platelets were then moved away from plasma through centrifugation of PRP, acidified at pH 6.5 with ACD (citric acid, sodium citrate and glucose 1/10 v/v), at 800×g for 10 min. and resuspended in Tyrode's buffer (CaCl2 0.20 g/L, KCl 0.20 g/L, […], NaCl 8.00 g/L, NaH2PO4*H2O), at pH 7.35 and charged with glucose and albumin. The preparation of a dense rich platelet granule suspension was made according to the method reported by (Fukami M H et al. J. Cell. Biol. 1978, 77, 389-99) and the degree of purity was verified through mepacrine Fluorimetric probe and the purity percentage was checked through the cytofluorimeter. If the concentration of the dense granules compared to the other organelles was lower than 80%, the suspension of platelet granules was not used for the study.
The resuspended platelets in the Tyrode's buffer at the concentration of 2.5×10^8 cells/ml were treated with aspirin (50 microM) at 10° C. for 15 min and then kept at 37° C. or at 4° C. for 15 min. […]
(§4) The entrapment of aspirin inside platelets or in the dense granules was measured through the method of Gaspari and Locatelli (Ther Drug Monit. 1987, 9, 243-7).

[6] = target: T2, MRP4-mediated transport; assay: ASA concentration in platelet dense granule preparation treated with ASA and ATP; assay type: cell-based
Method: as §2, §3
In the rich platelet dense granule suspension, ATP and ASA were added to the preparation, then it was kept at 37° C. for 15 min so a to reduce the transpost mediated by MRP4; the suspension was pretreated either with apyrase, an ATP scavenger substance or with Dipyridamole 30 min before adding aspirin, or the treatment with aspirin was made at 4° C.
as §4

[7] = target: T2, MRP4-mediated transport; assay: Release of 14C-labelled ASA and of ATP from thrombin-activated platelets; assay type: cell-based; conditions: platelets pretreated with dipyridamole
Method: Aspirin labelled with 14C (American Radiolabeled Chemicals, Inc. Saint Louis, USA) was added to the platelet suspension for 15 min at 37° C. After removing the excess of the substance marked by double centrifugation, the platelets were activated with Thrombin (0.2 U/ml) and then centrifugated. The reduction of the transport mediated by MRP4 was made through the preincubation of the platelet preparation with Dipyridamole 30 min before aspirin addition. The results are reported by evaluating the percentage of the radioactive present in the supernatant compared to the total radioactivity of the platelet preparation. ATP secretion was analyzed as a control through the luminometric method with commercial kit (Chronolog, Hevertown, Pa., USA).

[8] = treatment of platelets with ASA at 4° C. instead of 37° C.
[9] = pretreatment before ASA, relative to maximum obtained with ATP in external medium at 37° C.

Compound	thrombin-induced production of thromboxane [3] [ng/10^8 cells]	reduction of thromboxane production [3] [%]	cytosolic concentration of acetylsalicylic acid (ASA) [5] [%]	cytosolic concentration of metabolite salicylic acid [5] [%]	ASA concentration in platelet granules [6, 9] [%]	thromboxane production induced by thrombin [2] [ng/10^8 cells]	other results
CC(=O)Oc1ccccc1C(=O)O [ASA, acetylsalicylic acid]	343.7					1437.0±549.1	reduction of the risk of cardiovascular complications (myocardial infarction, cerebral infarction and vascular death) [1]: 25%; bioavailability [4]: 40-50%; half-life [4]: 15 to 20 min; plasma concentration peak registered after [4]: 30 to 40 min; platelet inhibition manifested after administration [4]: one; increase of cytosolic concentration of ASA [5, 8]: 240%; increase of cytosolic concentration of salicylate [5, 8]: 160%; ASA concentration in platelet granules ([6]; incubation of ASA at 4° C., relative to maximum obtained with ATP at 37° C.): 53.6%
OCCN(CCO)c1nc(N2CCCCC2)c2nc(N(CCO)CCO)nc(N3CCCCC3)c2n1 [dipyridamole, 2,6-bis-(diethanolamino)-4,8-dipiperidino-(5,4-d)-pyrimidine]	142.7	58	285	293	41.7	499.8±247.7	thromboxane production with respect to platelets treated with aspirin alone ([2]; platelets from bypass patients pretreated in vitro before aspirin): 35%; release of radiolabelled ASA after activation with thrombin ([7]; thrombin 0.2 U/ml): absent; ATP released by the platelets ([7]; thrombin-activated): 1.8 ± 0.3 nmol

Further lines, with some results ahead:

thrombin-induced production of thromboxane [3] [ng/10^8 cells]	reduction of thromboxane production [3] [%]	cytosolic concentration of acetylsalicylic acid (ASA) [5] [%]	cytosolic concentration of metabolite salicylic acid [5] [%]	ASA concentration in platelet granules [6, 9] [%]	Compound	thromboxane production induced by thrombin [2] [ng/10^8 cells]	other results
140.22	59.2	208	202		CN(C)C(=O)CCSC(SCCC(=O)O)c1cccc(/C=C/c2ccc3ccc(Cl)cc3n2)c1 (centres unmarked) [MK-571]		
		110	120		Clc1cccc(Nc2nnc(-c3ccccc3)c3ccccc23)c1 [MY-5445, 1-(3-chlorophenylamino)-4-phenylphthalazine]		
				56.1	apyrase		
